The values below are quoted from earlier work in the CATMoS acute toxicity set (Mansouri et al. 2021).

Several values for one entry are separate records, joined by “and”; a condition that tells them apart may be missing. Equal values may be shown once. Where a SMILES comes first, the peptide text is derived from it. Bridges are numbered along the chain shown (N, C = ends). [ ]: non-standard residue; d: D form. The star is where a group is joined. X1 = CC[C@H](C)CCCCC(=O)*; Dab = NCC[C@H](N)C(=O)O

The nature of the data set: rat acute oral toxicity. Conditions: in vivo.
Consider `CC1COC(C(Cl)CCl)O1` (stereo unspecified), for which the LD50 was 620 mg/kg.
Take `CC(C)NC(=S)NC(C)C`: the LD50 was 450 mg/kg.
Turning to `NS(=O)(=O)c1cc(C(=O)O)cc(N2CCCC2)c1Oc1ccccc1`, the LD50 is 5600 mg/kg.
With `O=C1[C@H]2CCCC[C@H]2C(=O)N1CCCCN1CCN(c2nsc3ccccc23)CC1`, the LD50 is 870 mg/kg.
Turning to `Cc1oc(C)c(C(=O)Nc2ccccc2)c1C`, the LD50 is 1470 mg/kg.
For the molecule `COCC(O)Cn1ccnc1[N+](=O)[O-]` (stereo unspecified), the LD50 is 2130 mg/kg.
In the case of `FC(F)(F)c1nc2c(Cl)c(Br)c(Cl)c(Br)c2[nH]1`, the LD50 is 3.43 mg/kg.
On to `COc1ccccc1OC1CCN(CCCC(=O)c2ccc(F)cc2)C1` (stereo unspecified), for which the median lethal dose (LD50) is 241 mg/kg.
For the molecule `Cc1c(I)c(=O)n(-c2ccccc2)n1C`, the LD50 is 2060 mg/kg.
For the molecule `CCCC=C1OC(=O)c2ccccc21`, the median lethal dose (LD50) was 1850 mg/kg.
Turning to `CCOC(=O)C1=C(C)NC(C)=C(C(=O)OCCN2CCCCC2)C1c1cccc([N+](=O)[O-])c1` (stereo unspecified), the median lethal dose (LD50) was 363 mg/kg.
Consider `COC(=O)c1cccc(CCN(C)Cc2ccccc2)c1`, for which the 50% lethal dose (LD50) was 700 mg/kg.
For the molecule `FC(F)(F)c1nnc2c3ccccc3ccn12`, the 50% lethal dose (LD50) was 660 mg/kg.
Take `CCC(=O)OC(C)c1ccccc1` (stereo unspecified): the LD50 was 5200 mg/kg.
In the case of `O=C1C=CC(=O)N1CCCCCCN1C(=O)C=CC1=O`, the 50% lethal dose (LD50) was 550 mg/kg.
For the molecule `CCC(CC)(CO)CO`, the LD50 is 850 mg/kg.
Regarding `CCN1CCC(=C(c2ccccc2)c2ccccc2)C1`, the LD50 was 166 mg/kg and 450 mg/kg.
For `CC(C)(N)Cc1ccccc1Cl`, the LD50 was 332 mg/kg.
In the case of `CCSC(=O)NC1CCCCC1`, the LD50 is 2300 mg/kg.
Consider `Cc1nc(N)nc(N)c1-c1ccc(Br)cc1`, for which the LD50 is 250 mg/kg.
For the molecule `CO[C@]12C[C@@H](COC(=O)c3cncc(Br)c3)CN(C)[C@@H]1Cc1cn(C)c3cccc2c13`, the LD50 is 1190 mg/kg.
In the case of `O[C@@H]1CO[C@H]2[C@@H]1OC[C@@H]2O`, the LD50 was 24200 mg/kg.
On to `CC(=O)c1cc2c(cc1C)C(C)(C)C(C)C2C(C)C` (stereo unspecified), for which the LD50 is 2220 mg/kg.
In the case of `Oc1ccc(C(O)CCNCCCSc2ccccc2)cc1` (stereo unspecified), the LD50 is 650 mg/kg.
For `C[n+]1ccccc1`, the LD50 is 285 mg/kg.
`c1ccc(C2(c3ccccc3)CC2C2=NCCN2)cc1` (stereo unspecified): the 50% lethal dose (LD50) was 359 mg/kg.
With `O=C(O)Cc1ccccc1Nc1c(Cl)cc(O)cc1Cl`, the LD50 was 190 mg/kg.
As to `CCN(CC)CC#N`, the 50% lethal dose (LD50) was 160 mg/kg.
Turning to `COC(=O)C1=C(C)NC(C)=C(C(=O)O[C@H]2CCN(Cc3ccccc3)C2)[C@H]1c1cccc([N+](=O)[O-])c1`, the 50% lethal dose (LD50) is 105 mg/kg.
Take `CCC(C)c1ccccc1OC(=O)NC` (stereo unspecified): the 50% lethal dose (LD50) was 350 mg/kg.
Turning to `CN(C)CCC(c1ccccc1)c1ccccn1` (stereo unspecified), the median lethal dose (LD50) was 520 mg/kg.
As to `CCOP(=S)(OC)Oc1ccc([N+](=O)[O-])cc1` (stereo unspecified), the median lethal dose (LD50) was 2.85 mg/kg.
With `C=CC(=O)OC(C)(C)C`, the median lethal dose (LD50) is 1050 mg/kg.
Consider `CCC(C)C(CC)C(N)=O` (stereo unspecified), for which the median lethal dose (LD50) was 760 mg/kg.
As for `CCCSP(=O)(OC)SCCC`, the 50% lethal dose (LD50) is 6.8 mg/kg.
As for `CCCNC(=O)c1sc(-c2cc(OC)c(OC)c(OC)c2)nc1C`, the LD50 was 5600 mg/kg.
Consider `O=C=NCCCCCCNC(=O)N(CCCCCCN=C=O)C(=O)NCCCCCCN=C=O`, for which the median lethal dose (LD50) was 19800 mg/kg.
Consider `CS(=O)C(C)(C)C(=O)O` (stereo unspecified), for which the LD50 is 7500 mg/kg.
As for `CC[C@H](C)CCCCC(=O)N[C@@H](CCN)C(=O)N[C@H](C(=O)N[C@@H](CCN)C(=O)N[C@H]1CCNC(=O)[C@@H]([C@H](C)O)NC(=O)[C@H](CCN)NC(=O)[C@H](CCN)NC(=O)[C@H](CC(C)C)NC(=O)[C@@H](CC(C)C)NC(=O)[C@H](CCN)NC1=O)[C@@H](C)O` (X1-[Dab]T[Dab][Dab][Dab][dL]L[Dab][Dab][dT]; lactam 4-C), the 50% lethal dose (LD50) was 121 mg/kg.
On to `CC(=O)N[C@@H](CC(C)C)C(=O)N[C@@H](CC(C)C)C(=O)N[C@H](C=O)CCCNC(=N)N`, for which the LD50 was 720 mg/kg.
Take `O=NN1CCCCCCC1`: the median lethal dose (LD50) was 283 mg/kg.
With `O=C(Cl)c1cccc(C(=O)Cl)c1`, the median lethal dose (LD50) is 2200 mg/kg.
Regarding `CCN(CC)CCNc1c(Cl)cc(C)c2ncccc12`, the LD50 is 900 mg/kg.
On to `C=CCN(CC=C)C(=O)CCl`, for which the LD50 was 700 mg/kg.
Take `CCOc1cc(OCC)c(C(=O)CCC(=O)O)cc1OCC`: the 50% lethal dose (LD50) was 2450 mg/kg.
Regarding `O=C(O)c1ccccc1Cl`, the LD50 was 1140 mg/kg.
As to `CNC(=O)ON=CC(C)(C)OC`, the LD50 is 15 mg/kg.
In the case of `CNCC12CCC(c3ccccc31)c1ccccc12`, the 50% lethal dose (LD50) was 700 mg/kg and 600 mg/kg.
Turning to `C[C@]12CCC(=O)C=C1C=C[C@@H]1[C@@H]2CC[C@@]2(C)[C@H]1CC[C@@]2(O)CCC(=O)O`, the LD50 is 650 mg/kg.
As for `Cn1c(-c2ccccc2)cc(-c2ccccc2)[n+]1C`, the LD50 is 206 mg/kg and 470 mg/kg.
Consider `C1COC(NC(C2CC2)C2CC2)=N1`, for which the LD50 was 295 mg/kg.
In the case of `COc1cc(C#N)ccc1OP(=S)(OC)OC`, the 50% lethal dose (LD50) was 2710 mg/kg.
As to `CC1=CC(=O)C(C(C)C)CC1` (stereo unspecified), the 50% lethal dose (LD50) was 2450 mg/kg.
As for `Nc1c(Cl)cc(Cl)cc1C(=O)O`, the median lethal dose (LD50) was 4120 mg/kg.
Consider `Nc1nc2cc(Br)ccc2o1`, for which the 50% lethal dose (LD50) was 1000 mg/kg.
Consider `N#CCCNc1ccccc1`, for which the LD50 was 4700 mg/kg.
For `CC1(C)Cc2cccc(OC(=O)NCSc3ccc(C(C)(C)C)cc3)c2O1`, the LD50 is 125 mg/kg.
For the molecule `C=CBr`, the LD50 was 500 mg/kg.
Turning to `CC(Cl)CCl` (stereo unspecified), the LD50 is 1950 mg/kg.
As for `CC(c1ccccc1)C(C)(C)N` (stereo unspecified), the LD50 is 180 mg/kg.
On to `O=C(O)c1ccc(C(=O)O)c2c(C(=O)O)ccc(C(=O)O)c12`, for which the LD50 is 7500 mg/kg.

As a reminder, the LD50 is the dose at which mortality reaches 50%.
